Laboratory results: patent US20090018111A1, “Novel Antimicrobial Medicament” (priority 2004, published 2009)
Like-named read-outs stand apart in the source and are kept apart here.

Key:
Assay in all cases: Sensitivity test (agar dilution)
E. faecium ATCC19434 = format: cell-based, Enterococcus faecium; conditions: for MIC: Enterococcus faecium
Method in brief: (§1)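 Each strain, cultured overnight at 37° C and adjusted to about 10^6 CFU/ml in BSG, was spotted (about 5 μl) on Mueller Hinton agar with twofold serial drug concentrations. Inhibition defines the MIC.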

M. catarrhalis ATCC25238 = format: cell-based, Moraxella catarrhalis; conditions: Moraxella catarrhalis
Method in brief: as §1

M. catarrhalis ATCC8176 = format: cell-based, Moraxella catarrhalis; conditions: Moraxella catarrhalis
Method in brief: as §1

S. epidermidis IAM1296 = format: cell-based, Staphylococcus epidermidis
Method in brief: as §1

SMILES: C[C@H]1C=C(c2csc(SC3=C(C(=O)O)N4C(=O)[C@H]([C@@H](C)O)[C@H]4[C@H]3C)n2)CN1 [SM, (4R,5S,6S)-6-[(1R)-1-Hydroxyethyl]-4-methyl-3-({4-[(5S)-5-methyl-2,5-dihydro-1H-pyrrol-3-yl]-1,3-thiazol-2-yl}sulfanyl)-7-oxo-1-azabicyclo[3.2.0]hept-2-ene-2-carboxylic acid]
- MIC (E. faecium ATCC19434; ATCC19434, Concomitant drug (MEPM:SM = 2:1), read-out: MIC): 0.25 µg/mL
- MIC (E. faecium ATCC19434; ATCC19434, alone, read-out: MIC): 0.25 µg/mL
- MIC (E. faecium ATCC19434; ATCC19434, drug alone, E. faecium ATCC19434, read-out: MIC alone): 0.25 µg/mL
- MIC alone (E. faecium ATCC19434; drug alone, E. faecium ATCC19434): 0.125 µg/mL
- MIC (M. catarrhalis ATCC25238; ATCC25238, Concomitant (AZT:SM = 1:1), M. catarrhalis ATCC25238, read-out: MIC concomitant): ≤ 0.002 µg/mL
- MIC (M. catarrhalis ATCC25238; ATCC25238, Concomitant (BIPM:SM = 1:1), M. catarrhalis ATCC25238, read-out: MIC concomitant): ≤ 0.002 µg/mL
- MIC (M. catarrhalis ATCC25238; ATCC25238, Concomitant (CAZ:SM = 1:1), M. catarrhalis ATCC25238, read-out: MIC concomitant): ≤ 0.002 µg/mL
- MIC (M. catarrhalis ATCC25238; ATCC25238, Concomitant (CPFX:SM = 1:1), M. catarrhalis ATCC25238, read-out: MIC concomitant): ≤ 0.002 µg/mL
- MIC (M. catarrhalis ATCC25238; ATCC25238, Concomitant (DRPM:SM = 1:1), M. catarrhalis ATCC25238, read-out: MIC concomitant): ≤ 0.002 µg/mL
- MIC (M. catarrhalis ATCC25238; ATCC25238, Concomitant (IPM:SM = 1:1), read-out: MIC): ≤ 0.002 µg/mL
- MIC (M. catarrhalis ATCC25238; ATCC25238, Concomitant (MEPM:SM = 1:1), read-out: MIC): ≤ 0.016 µg/mL
- MIC (M. catarrhalis ATCC25238; ATCC25238, Concomitant (MEPM:SM = 1:2), read-out: MIC): ≤ 0.031 µg/mL
- MIC (M. catarrhalis ATCC25238; ATCC25238, Concomitant (MEPM:SM = 1:4), read-out: MIC): ≤ 0.063 µg/mL
- MIC (M. catarrhalis ATCC25238; ATCC25238, Concomitant (PAPM:SM = 1:1), M. catarrhalis ATCC25238, read-out: MIC concomitant): ≤ 0.002 µg/mL
- MIC (M. catarrhalis ATCC25238; ATCC25238, Concomitant (PIPC:SM = 1:1), M. catarrhalis ATCC25238, read-out: MIC concomitant): ≤ 0.002 µg/mL
- MIC (M. catarrhalis ATCC25238; ATCC25238, Concomitant drug (MEPM:SM = 2:1), read-out: MIC): ≤ 0.008 µg/mL
- MIC (M. catarrhalis ATCC25238; ATCC25238, drug alone, M. catarrhalis ATCC25238, read-out: MIC alone): ≤ 0.002 µg/mL
- MIC (M. catarrhalis ATCC8176; ATCC8176, Concomitant (AZT:SM = 1:1), M. catarrhalis ATCC8176, read-out: MIC concomitant): ≤ 0.002 µg/mL
- MIC (M. catarrhalis ATCC8176; ATCC8176, Concomitant (BIPM:SM = 1:1), M. catarrhalis ATCC8176, read-out: MIC concomitant): ≤ 0.002 µg/mL
- MIC (M. catarrhalis ATCC8176; ATCC8176, Concomitant (CAZ:SM = 1:1), M. catarrhalis ATCC8176, read-out: MIC concomitant): ≤ 0.002 µg/mL
- MIC (M. catarrhalis ATCC8176; ATCC8176, Concomitant (CPFX:SM = 1:1), M. catarrhalis ATCC8176, read-out: MIC concomitant): ≤ 0.002 µg/mL
- MIC (M. catarrhalis ATCC8176; ATCC8176, Concomitant (DRPM:SM = 1:1), M. catarrhalis ATCC8176, read-out: MIC concomitant): ≤ 0.002 µg/mL
- MIC (M. catarrhalis ATCC8176; ATCC8176, Concomitant (IPM:SM = 1:1), read-out: MIC): ≤ 0.002 µg/mL
- MIC (M. catarrhalis ATCC8176; ATCC8176, Concomitant (MEPM:SM = 1:1), read-out: MIC): ≤ 0.016 µg/mL
- MIC (M. catarrhalis ATCC8176; ATCC8176, Concomitant (MEPM:SM = 1:2), read-out: MIC): ≤ 0.031 µg/mL
- MIC (M. catarrhalis ATCC8176; ATCC8176, Concomitant (MEPM:SM = 1:4), read-out: MIC): ≤ 0.063 µg/mL
- MIC (M. catarrhalis ATCC8176; ATCC8176, Concomitant (PAPM:SM = 1:1), M. catarrhalis ATCC8176, read-out: MIC concomitant): ≤ 0.002 µg/mL
- MIC (M. catarrhalis ATCC8176; ATCC8176, Concomitant (PIPC:SM = 1:1), M. catarrhalis ATCC8176, read-out: MIC concomitant): ≤ 0.002 µg/mL
- MIC (M. catarrhalis ATCC8176; ATCC8176, Concomitant drug (MEPM:SM = 2:1), read-out: MIC): ≤ 0.008 µg/mL
- MIC (M. catarrhalis ATCC8176; ATCC8176, drug alone, M. catarrhalis ATCC8176, read-out: MIC alone): ≤ 0.002 µg/mL
- MIC (S. epidermidis IAM1296; Staphylococcus epidermidis, IAM1296, Concomitant (AZT:SM = 1:1), S. epidermidis IAM1296, read-out: MIC concomitant): 0.031 µg/mL
- MIC (S. epidermidis IAM1296; Staphylococcus epidermidis, IAM1296, Concomitant (BIPM:SM = 1:1), S. epidermidis IAM1296, read-out: MIC concomitant): 0.031 µg/mL
- MIC (S. epidermidis IAM1296; Staphylococcus epidermidis, IAM1296, Concomitant (CAZ:SM = 1:1), S. epidermidis IAM1296, read-out: MIC concomitant): 0.031 µg/mL
- MIC (S. epidermidis IAM1296; Staphylococcus epidermidis, IAM1296, Concomitant (CPFX:SM = 1:1), S. epidermidis IAM1296, read-out: MIC concomitant): 0.031 µg/mL
- MIC (S. epidermidis IAM1296; Staphylococcus epidermidis, IAM1296, Concomitant (DRPM:SM = 1:1), S. epidermidis IAM1296, read-out: MIC concomitant): 0.031 µg/mL
- MIC (S. epidermidis IAM1296; Staphylococcus epidermidis, IAM1296, Concomitant (IPM:SM = 1:1), read-out: MIC): 0.016 µg/mL
- MIC (S. epidermidis IAM1296; Staphylococcus epidermidis, IAM1296, Concomitant (MEPM:SM = 1:1), read-out: MIC): ≤ 0.016 µg/mL
- MIC (S. epidermidis IAM1296; Staphylococcus epidermidis, IAM1296, Concomitant (MEPM:SM = 1:2), read-out: MIC): ≤ 0.031 µg/mL
- MIC (S. epidermidis IAM1296; Staphylococcus epidermidis, IAM1296, Concomitant (MEPM:SM = 1:4), read-out: MIC): ≤ 0.063 µg/mL
- MIC (S. epidermidis IAM1296; Staphylococcus epidermidis, IAM1296, Concomitant (PAPM:SM = 1:1), S. epidermidis IAM1296, read-out: MIC concomitant): 0.016 µg/mL
- MIC (S. epidermidis IAM1296; Staphylococcus epidermidis, IAM1296, Concomitant (PIPC:SM = 1:1), S. epidermidis IAM1296, read-out: MIC concomitant): 0.016 µg/mL
- MIC (S. epidermidis IAM1296; Staphylococcus epidermidis, IAM1296, Concomitant drug (MEPM:SM = 2:1), read-out: MIC): 0.031 µg/mL
- MIC (S. epidermidis IAM1296; Staphylococcus epidermidis, IAM1296, alone, read-out: MIC): 0.016 µg/mL
- MIC (S. epidermidis IAM1296; Staphylococcus epidermidis, IAM1296, drug alone, S. epidermidis IAM1296, read-out: MIC alone): 0.031 µg/mL
- MIC (S. epidermidis IAM1296; alone): 0.031 µg/mL
- MIC alone (S. epidermidis IAM1296; drug alone, S. epidermidis IAM1296): 0.016 µg/mL
